According to patent US10874103B2, “Antibacterial composition comprising an acetal or a long-chain alkyl hexitane ether” (TEREOS STARCH & SWEETENERS BELGIUM, priority 2014, dated 2020):
Like-named read-outs stand apart in the source and are kept apart here.

Tests used:
[1] = tested on: Enterococci: E. faecalis strains; assay: MIC microdilution on wider panel (Example 8), E. faecalis strains; assay type: cell-based
Procedure: The cultures studied, freshly isolated (after incubation on a blood agar at 37° C. for 18 h), are taken up in sterile water (10 mL) until a 0.5 McFarland (Mc) suspension i.e. at 1 to 2×10^8 CFU (bacteria)/cm^3 is obtained. The bacterial suspension was then diluted to obtain a final concentration of 1×10^6 CFU/cm^3. Each well contains an identical quantity of Mueller-Hinton medium (a rich medium for bacterial culture) and bacteria with final 0.5×10^6 CFU/cm^3. The test compounds of interest are solubilized in ethanol or DMSO at 25 mg/mL before being diluted to different concentrations two by two. On the multiwell plate, a first series has been planned comprising the culture medium without the test compound of interest. It corresponds to the growth control (control well). These controls serve as reference for comparing bacterial growth with that of the subsequent wells comprising different concentrations of the test compound of interest. The second series of wells comprises the mother solution for the test compound of interest for a concentration in the wells of 256 mg (7 mM). Each series of wells was diluted two by two until the last series for a final concentration of 0.25 mg/L (0.0007 mM). Each concentration is duplicated in the same plate. The plate is incubated for 18 h at 37° C. […] If there is antibacterial activity, the bacterial growth is inhibited, which means that no turbidity or bacterial residue is present. The minimum inhibitory concentrations (MIC) are tested on Gram-positive bacterial strains according to the recommendations of the “Clinical Laboratory Standards Institute” (Clinical-Laboratory-Standards-Institute, 6th ed. Approved standard M100-S17. CLSI, Wayne, Pa., 2007). The clinical strains have been isolated in the Hospice de Lyon. […]

[2] = tested on: S. aureus (ATCC® 292213™); assay: MBC, bacterial count from clear wells reseeded on agar (Example 5); assay type: cell-based; settings: Table 2
Procedure: (§1) To determine whether the agents tested are bactericidal, the minimum bactericidal concentration (MBC) is determined. The MBC corresponds to the concentration leaving a number of bacterial survivors of <4 log. For this, a bacterial count is run from clear wells or without bacterial residue (C≤MIC). To do this, a dilution to 1/100 was conducted with the two wells with the same concentration before seeding on a blood agar using the Spiral technique. After 24 h of incubation at 37° C., the visual count allowed determination of the minimum concentration from which there is no bacterial growth.
(§2) To determine the bactericidal effect of compounds presenting bacteriostatic properties, the wells no longer presenting turbidity were reseeded on agar.

[3] = tested on: E. faecalis (ATCC® 29212™); assay: as above; assay type: cell-based; settings: Table 2; reseeded on agar
Procedure: as §1, §2

[4] = tested on: L. monocytogenes (CIP 103575); assay: as above; assay type: cell-based; settings: Table 2; reseeded on agar
Procedure: as §1, §2

[5] = tested on: L. monocytogenes (CIP 103575), E. faecalis (ATCC® 29212™) and S. aureus (ATCC® 292213™); assay: MBC, statement for all Gram-positive strains tested together; assay type: cell-based; settings: all three strains
Procedure: as §1, §2

[6] = tested on: Listeria: L. monocytogenes strains; assay: MIC microdilution on wider panel (Example 8), Listeria strains; assay type: cell-based
Procedure: The cultures studied, freshly isolated (after incubation on a blood agar at 37° C. for 18 h), are taken up in sterile water (10 mL) until a 0.5 McFarland (Mc) suspension i.e. at 1 to 2×10^8 CFU (bacteria)/cm^3 is obtained. The bacterial suspension was then diluted to obtain a final concentration of 1×10^6 CFU/cm^3. Each well contains an identical quantity of Mueller-Hinton medium (a rich medium for bacterial culture) and bacteria with final 0.5×10^6 CFU/cm^3. The test compounds of interest are solubilized in ethanol or DMSO at 25 mg/mL before being diluted to different concentrations two by two. On the multiwell plate, a first series has been planned comprising the culture medium without the test compound of interest. It corresponds to the growth control (control well). These controls serve as reference for comparing bacterial growth with that of the subsequent wells comprising different concentrations of the test compound of interest. The second series of wells comprises the mother solution for the test compound of interest for a concentration in the wells of 256 mg (7 mM). Each series of wells was diluted two by two until the last series for a final concentration of 0.25 mg/L (0.0007 mM). Each concentration is duplicated in the same plate. The plate is incubated for 18 h at 37° C. […] If there is antibacterial activity, the bacterial growth is inhibited, which means that no turbidity or bacterial residue is present. The minimum inhibitory concentrations (MIC) are tested on Gram-positive bacterial strains according to the recommendations of the “Clinical Laboratory Standards Institute” (Clinical-Laboratory-Standards-Institute, 6th ed. Approved standard M100-S17. CLSI, Wayne, Pa., 2007). The clinical strains have been isolated in the Hospice de Lyon. Listeria: L. monocytogenes (CIP 103575), clinical strain isolated from hemoculture (015189074801, LM1), a strain isolated from cerebrospinal liquid (015170199001, LM2), clinical strains isolated from hemoculture (015181840701, LM3). The cultures studied, freshly isolated (after incubation on a blood agar at 37° C. for 18 h), are taken up in sterile water (10 mL) until a 0.5 McFarland (Mc) suspension i.e. at 10^8 CFU (bacteria)/cm^3 is obtained. The bacterial suspension was then diluted to obtain a final concentration of 10^6 CFU/cm^3.

[7] = Critical micelle concentration (surfactant properties, Example 6); assay type: physicochemical
Source text: The physical, chemical and antimicrobial properties for the best products synthesized have been tested. These analyses show the different surfactant profiles, and the minimum inhibitory concentrations (MIC) for each compound on Gram-positive bacteria. The best surfactant and antimicrobial results are compared in Table 3.

For Dodecyl-1,4-d-sorbitan [Example 2e], the “Minimum inhibitory concentration (MIC) ATCC 29212” value ([1]; E. faecalis ATCC 29212) was 8 µg/mL, the “Minimum inhibitory concentration (MIC) 1801” value ([1]; clinical E. faecalis from urines, strain 015205261801) was 8 µg/mL and the “Minimum inhibitory concentration (MIC) 9901” value ([1]; clinical E. faecalis from urines, strain 015206179901) was 16 µg/mL. The “minimum bactericidal concentration (MBC) S. aureus” value [2] was 120 µM, the “minimum bactericidal concentration (MBC) E. faecalis” value [3] was 120 µM and the “minimum bactericidal concentration (MBC) L. monocytogenes” value [4] was 120 µM. For the same substance, the “MBC for all the Gram-positive strains tested” value [5] was 120 µM, the “Minimum inhibitory concentration (MIC) CIP 103575” value ([6]; L. monocytogenes CIP 103575) was 32 µg/mL and the “Minimum inhibitory concentration (MIC) LM3” value ([6]; clinical strain from hemoculture 015181840701) was 32 µg/mL. The “Minimum inhibitory concentration (MIC) LM1” value ([6]; clinical strain from hemoculture 015189074801) was 16 µg/mL, the “Minimum inhibitory concentration (MIC) LM2” value ([6]; strain from cerebrospinal liquid 015170199001) was 32 µg/mL and the “CMC (critical micelle concentration)” value [7] was 0.091 mM. The “CMC (critical micelle concentration)” value ([7]; listed as Sorbitan dodecyl ether) was 0.09 mM.
